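Five concentrations, 48 hours, 96-well plates. GI50 marks 50% less growth.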 Calls of active or inactive are those of the source. Rule as the data show it: active = GI50 up to about 1.1 µM and inactive = higher.
Assays:
Experiment in all cases: growth of human tumour cells (NCI), 48 h
HT-29 = tested on: HT-29
NCI-H522 = tested on: NCI-H522
LOX IMVI = tested on: LOX IMVI
OVCAR-4 = tested on: OVCAR-4
ACHN = tested on: ACHN
COLO 205 = tested on: COLO 205
SK-MEL-28 = tested on: SK-MEL-28
RPMI-8226 = tested on: RPMI-8226
RXF 393 = tested on: RXF 393
SF-268 = tested on: SF-268
SW-620 = tested on: SW-620
OVCAR-3 = tested on: OVCAR-3
EKVX = tested on: EKVX
T47D = tested on: T47D
MDA-MB-435 = tested on: MDA-MB-435
A498 = tested on: A498
BT-549 = tested on: BT-549
786-0 = tested on: 786-0
Hs-578T = tested on: Hs-578T

| Compound | GI50 (HT-29) | GI50 (NCI-H522) | GI50 (LOX IMVI) | GI50 (OVCAR-4) | GI50 (ACHN) | GI50 (COLO 205) | GI50 (SK-MEL-28) | GI50 (RPMI-8226) | GI50 (RXF 393) | GI50 (SF-268) | GI50 (SW-620) | GI50 (OVCAR-3) | GI50 (EKVX) | GI50 (T47D) | GI50 (MDA-MB-435) | GI50 (A498) | GI50 (BT-549) | GI50 (786-0) | GI50 (Hs-578T) |
| --- | --- | --- | --- | --- | --- | --- | --- | --- | --- | --- | --- | --- | --- | --- | --- | --- | --- | --- | --- |
| CN1C(=O)CN2C(Cl)(Cl)C2(c2ccccc2F)c2cc([N+](=O)[O-])ccc21 (stereo not drawn) | 39.1 µM (inactive) | > 100 µM (inactive) | 35.7 µM (inactive) | > 100 µM (inactive) | 41.5 µM (inactive) | 52.1 µM (inactive) | > 100 µM (inactive) | 40.8 µM (inactive) | 14.6 µM (inactive) | 51.1 µM (inactive) | 69 µM (inactive) | > 100 µM (inactive) | 30.4 µM (inactive) | – | – | – | – | – | – |
| CCOC(=O)c1csc(NC(=O)CCN2CCOCC2)n1 | 36.5 µM (inactive) | – | 93.8 µM (inactive) | > 100 µM (inactive) | 44.5 µM (inactive) | 52.7 µM (inactive) | > 100 µM (inactive) | 43.3 µM (inactive) | 75.5 µM (inactive) | – | 49.1 µM (inactive) | 39.6 µM (inactive) | 77.3 µM (inactive) | > 100 µM (inactive) | > 100 µM (inactive) | > 100 µM (inactive) | – | – | – |
| CN1CN(c2ccccc2)C2(CCN(CCC3COc4ccccc4O3)CC2)C1=O (stereo not drawn) | 3.88 µM (inactive) | 13.8 µM (inactive) | 23 µM (inactive) | – | 18.1 µM (inactive) | 5.6 µM (inactive) | 19.6 µM (inactive) | 17.8 µM (inactive) | 31.1 µM (inactive) | 33.8 µM (inactive) | 22 µM (inactive) | 19.9 µM (inactive) | 10.3 µM (inactive) | 4.65 µM (inactive) | 24.2 µM (inactive) | – | 18 µM (inactive) | 36.4 µM (inactive) | – |
| COc1ccc(OC)c2c1CC(C(=O)O)(C(=O)O)CC2=O | – | – | > 100 µM (inactive) | > 100 µM (inactive) | > 100 µM (inactive) | – | > 100 µM (inactive) | – | > 100 µM (inactive) | > 100 µM (inactive) | > 100 µM (inactive) | > 100 µM (inactive) | > 100 µM (inactive) | – | – | – | – | > 100 µM (inactive) | – |
| C=CCC12CC(=O)CCC1CC(=O)C2 (stereo not drawn) | – | > 100 µM (inactive) | – | > 100 µM (inactive) | > 100 µM (inactive) | > 100 µM (inactive) | > 100 µM (inactive) | > 100 µM (inactive) | > 100 µM (inactive) | > 100 µM (inactive) | > 100 µM (inactive) | > 100 µM (inactive) | – | – | – | > 100 µM (inactive) | – | > 100 µM (inactive) | – |
| COc1ccc2c(c1)OCC1=C2Oc2ccccc2C1 | 26.7 µM (inactive) | 22 µM (inactive) | 21.4 µM (inactive) | 31.6 µM (inactive) | 37.4 µM (inactive) | 22.5 µM (inactive) | – | 23.1 µM (inactive) | – | 81.3 µM (inactive) | 30.2 µM (inactive) | 33.6 µM (inactive) | 30.3 µM (inactive) | 36.1 µM (inactive) | 26.5 µM (inactive) | > 100 µM (inactive) | 28 µM (inactive) | 38 µM (inactive) | – |
| CCOC(=O)c1c(SCc2cc(=O)[nH]c(=O)[nH]2)n(-c2ccccc2)c(=S)n(-c2ccccc2)c1=O | > 100 µM (inactive) | – | – | – | > 100 µM (inactive) | > 100 µM (inactive) | > 100 µM (inactive) | > 100 µM (inactive) | > 100 µM (inactive) | > 100 µM (inactive) | > 100 µM (inactive) | > 100 µM (inactive) | > 100 µM (inactive) | > 100 µM (inactive) | > 100 µM (inactive) | > 100 µM (inactive) | > 100 µM (inactive) | > 100 µM (inactive) | – |
| CC(=O)NCCc1c(-c2[nH]c3ccccc3c2CCNC(C)=O)[nH]c2ccccc12 | > 100 µM (inactive) | – | > 100 µM (inactive) | 49.2 µM (inactive) | 66.7 µM (inactive) | > 100 µM (inactive) | > 100 µM (inactive) | > 100 µM (inactive) | > 100 µM (inactive) | > 100 µM (inactive) | > 100 µM (inactive) | > 100 µM (inactive) | > 100 µM (inactive) | – | > 100 µM (inactive) | 74.8 µM (inactive) | > 100 µM (inactive) | 35.7 µM (inactive) | 40.1 µM (inactive) |
| Cc1ccc(-c2cs/c(=N\c3c(C)n(C)n(-c4ccccc4)c3=O)n2CCO)cc1 | – | – | – | > 100 µM (inactive) | 46.5 µM (inactive) | – | > 100 µM (inactive) | > 100 µM (inactive) | > 100 µM (inactive) | > 100 µM (inactive) | – | > 100 µM (inactive) | 84.7 µM (inactive) | – | > 100 µM (inactive) | 70 µM (inactive) | 74.3 µM (inactive) | – | – |
| NS(=O)(=O)c1nnc(NC(=O)N(c2ccccc2)c2ccccc2)s1 | 27.6 µM (inactive) | 16.8 µM (inactive) | 15.9 µM (inactive) | 27.9 µM (inactive) | – | 37.9 µM (inactive) | 39 µM (inactive) | 17 µM (inactive) | 18.4 µM (inactive) | 30.3 µM (inactive) | 29.9 µM (inactive) | 19.5 µM (inactive) | 24.8 µM (inactive) | – | 23.4 µM (inactive) | – | 16.1 µM (inactive) | 23 µM (inactive) | 25 µM (inactive) |
| CSC1=N/C(=C\c2ccc(C)cc2)C(=O)N1CN1CCOCC1 | – | 97.5 µM (inactive) | 39.9 µM (inactive) | 0.622 µM (active) | 35.4 µM (inactive) | 42.7 µM (inactive) | > 10 µM (inactive) | 23.7 µM (inactive) | – | 47.6 µM (inactive) | 40 µM (inactive) | > 100 µM (inactive) | 47.4 µM (inactive) | – | 99.8 µM (inactive) | 98.2 µM (inactive) | – | 44.7 µM (inactive) | 84.9 µM (inactive) |
| O[C@@H]1C[C@H]2N3CC[C@@]2(c2cc4c(cc2C3)OCO4)[C@H]2O[C@@H]12 | > 100 µM (inactive) | > 100 µM (inactive) | > 100 µM (inactive) | > 100 µM (inactive) | > 100 µM (inactive) | < 0.01 µM (active) | > 100 µM (inactive) | > 100 µM (inactive) | > 100 µM (inactive) | > 100 µM (inactive) | > 100 µM (inactive) | > 100 µM (inactive) | > 100 µM (inactive) | – | > 100 µM (inactive) | > 100 µM (inactive) | > 100 µM (inactive) | > 100 µM (inactive) | > 100 µM (inactive) |
| COc1ccc(C2S/C(=C\c3ccc(O)cc3)C(=O)N2NC(=O)Cc2ccccc2)cc1 (stereo not drawn) | > 100 µM (inactive) | > 100 µM (inactive) | > 100 µM (inactive) | > 100 µM (inactive) | > 100 µM (inactive) | > 100 µM (inactive) | > 100 µM (inactive) | > 100 µM (inactive) | > 100 µM (inactive) | > 100 µM (inactive) | > 100 µM (inactive) | – | – | – | – | > 100 µM (inactive) | – | > 100 µM (inactive) | – |
| COc1cccc(C2C3=C(COC3=O)Oc3cc4c(cc32)OCO4)c1 (stereo not drawn) | 0.0309 µM (active) | < 0.01 µM (active) | < 0.0155 µM (active) | 0.424 µM (active) | 0.0432 µM (active) | 0.0233 µM (active) | 0.0327 µM (active) | 0.0156 µM (active) | 0.0251 µM (active) | 0.0575 µM (active) | 0.0188 µM (active) | 0.0219 µM (active) | 0.177 µM (active) | – | < 0.01 µM (active) | 0.0264 µM (active) | > 100 µM (inactive) | 0.0344 µM (active) | < 0.0176 µM (active) |
| Clc1cccc(Cl)c1C1ON=C(c2ccccc2)N1C12CC3CC(CC(C3)C1)C2 (stereo not drawn) | 29.1 µM (inactive) | 32.2 µM (inactive) | 7.26 µM (inactive) | 25.3 µM (inactive) | 11.2 µM (inactive) | 11.9 µM (inactive) | 45 µM (inactive) | 6.64 µM (inactive) | 39.1 µM (inactive) | 82 µM (inactive) | – | 9.38 µM (inactive) | 37.4 µM (inactive) | 11.4 µM (inactive) | 17.9 µM (inactive) | 56.4 µM (inactive) | – | 32.4 µM (inactive) | 24.2 µM (inactive) |
| COc1cc(C2c3cc4c(cc3[C@@H](Nc3ccc(C(=O)O)cc3)C3COC(=O)[C@H]23)OCO4)cc(OC)c1O (stereo partly drawn) | 22 µM (inactive) | – | 4.41 µM (inactive) | 20.2 µM (inactive) | 31.6 µM (inactive) | – | 27.5 µM (inactive) | – | 9.35 µM (inactive) | 14.6 µM (inactive) | – | 20 µM (inactive) | 27.4 µM (inactive) | – | – | 18.7 µM (inactive) | – | – | – |
| CCC(=O)O[C@@H]1C2C(OC(C)=O)C34COC(C)([C@@H]3C3C(C[C@]3(C)OC(C)=O)[C@@H](OC(=O)c3ccccc3)C4=O)[C@H](OC(C)=O)[C@@]2(OC(C)=O)C[C@@H]1C (stereo partly drawn) | > 100 µM (inactive) | 37.1 µM (inactive) | 32 µM (inactive) | 21.1 µM (inactive) | 36.1 µM (inactive) | 43.5 µM (inactive) | > 100 µM (inactive) | > 100 µM (inactive) | – | 44.1 µM (inactive) | 47.8 µM (inactive) | 21.6 µM (inactive) | 87.1 µM (inactive) | – | – | – | – | 11.7 µM (inactive) | – |
| Oc1ccc(-c2nc3ccc(Cl)cc3s2)cc1 | 18.4 µM (inactive) | 16.3 µM (inactive) | 21.4 µM (inactive) | – | 76.7 µM (inactive) | 17.7 µM (inactive) | – | 20.1 µM (inactive) | 19.8 µM (inactive) | 17.2 µM (inactive) | 21.1 µM (inactive) | 23.5 µM (inactive) | 16.2 µM (inactive) | – | 18.5 µM (inactive) | 20 µM (inactive) | 18.7 µM (inactive) | – | – |

Source: ChEMBL document CHEMBL1201862, “PubChem BioAssay data set” (2004)
